Data on 2 compounds can be found in patent publication US4411909A, “[(2-Oxo-3-tetrahydrothienylcarbamoyl)-alkylthio] acetic acids, their salts and esters, a process for preparation thereof and the pharmaceutical compositions containing same” (priority 1981, dated 1983).

Structures are written as SMILES.

A word on the LD50: it is the dose at which mortality reaches 50%.

The subject of data set [1] is bronchial mucus. The data set can be described thus: test of activity in the rabbit: production/secretion of bronchial mucus (tracheal cannula, technique of Scuri et al.). It counts as in vivo. The conditions noted are these: for variation % of secretion of mucus with respect to controls: intravenous, 10 mg/kg, 4 hours following vs 4 hours preceding treatment, versus physiological solution controls. On the procedure:
Rabbits were used weighing about 3 kg with a cannula implanted in the trachea according to the technique of Scuri et al., Boll. Chim. Farm., 119,(3), 1980. The quantity of mucus produced and excreted was recorded during the 4 hours preceding and the 4 hours following the treatment.

Data set [2] deals with damage provoked by the action of sulfur dioxide on the bronchi. The data set can be described thus: test of mucolytic activity based on the inhalation of SO2 in the rat. It counts as in vivo. An excerpt:
In the test of mucolytic activity based on the inhalation of SO2 in the rat, the compounds of the present invention have shown a good mucolytic activity.

Data set [3] can be described thus: acute toxicity in the mouse. The conditions noted are these: in vivo.
Data set [4] is described as follows: acute toxicity in the rat. The conditions noted are these: in vivo.
Data set [5] in a line: toxicity, overall statement. It counts as in vivo. The settings on record: in words.
The mark [6] stands for this setting: intravenous, read-out: LD50 i.v.

On to `O=C(O)CSCC(=O)NC1CCSC1=O` (stereo not shown) [PV 144, [(2-oxo-3-tetrahydrothienylcarbamoyl)-methylthio]acetic acid], for which the “activity compared with reference product carbocysteine (mucus secretion)” value in data set [1] (i.v., same dose by weight (10 mg/kg)) is “at least as active as the reference product”. In data set [1], the “variation % of secretion of mucus with respect to controls” value stood at 52.1%. Moreover, the “regression of bronchial damage compared with carbocysteine” value in data set [2] (PV 144 oral 500 mg/kg vs carbocysteine 500 mg/kg (3.35 mmol/kg)) was “qualitatively and quantitatively equal”. For the same compound, the “regression of the damage provoked by sulfur dioxide on the bronchi” value in data set [2] (oral, 500 mg/kg (2 mmol/kg)) was “significant regression of the damage”. Further, the LD50 in data set [3] (setting [6]) was over 3500 mg/kg; in data set [3] (oral, read-out: LD50 oral), over 10000 mg/kg; in data set [4] (setting [6]) it was over 3500 mg/kg; in data set [4] (oral, read-out: LD50 oral), over 10000 mg/kg. In addition, the toxicity entry in data set [5] is given as “virtually without toxicity”.
Regarding `N[C@@H](CSCC(=O)O)C(=O)O` [carbocysteine, S-carboxymethylcysteine, reference compound], the “variation % of secretion of mucus with respect to controls” value in data set [1] is given as 51.8%.
